Holding throughout (assay type): binding
Test [1] addresses T1, human isoform h5-HT4e (Homo sapiens, UniProt Q13639).
T1 construct: expressed in transfected cells; membrane preparation
The test is described as follows: displacement of radioligand [3H]-GR113808 in rat glial cells expressing h5-HT4e. How it is done:
The compounds of the invention were evaluated by measuring their affinity constant Ki determined by displacing a radioligand [^3H]-GR113808 in rat glial cells stably expressing the human isoform h5-HT4e.
Confluent glial cells were washed twice in PBS and centrifuged at 300 g for 5 min. The pellet was used immediately and the cells were suspended in 10 volumes of HEPES (50 mM, pH 7.4, 4° C.) then homogenized with a teflon homogenizer and centrifuged at 40,000 g for 20 min. The pellet was resuspended in 15 volumes of HEPES. Displacement experiments were carried out in 500 μl of buffer (50 mM HEPES) containing 20 μl of radioligand [^3H]-GR113808 at a concentration of 0.2 nM for isoform h5-HT4e or at a concentration equal to half of the Kd of the radioligand for the other isoforms expressed in COS cells, 20 μl of competitor ligand at seven different concentrations and 50 μl of membrane preparation (100–200 μg of protein determined by the Bradford method). Binding was carried out at 25° C. for 30 min and the reaction was stopped by rapid vacuum filtration (Brandel Harvester) on Whatman GF/B filters preincubated in 0.1% PEI solution to minimize nonspecific binding.
Membrane-bound radioactivity is retained on the filter, which was cut and washed with cold buffer (50 mM Tris-HCl, pH 7.4) and incubated overnight in 4 ml of scintillation liquid. Radioactivity was measured in a liquid scintillation counter (Beckman LS 6500C). Binding data were obtained by computer assisted linear regression (Graph Prism Program, Graph Pad Software. Inc., San Diego, Calif.)

Test [2] has as its target 5-HT1B receptor (Homo sapiens, UniProt P28222). In words: selectivity, 5-HT1B receptor. The note with it: up to a concentration of 1 μM.
Test [3] addresses T2, 5-HT1A receptor (Homo sapiens, UniProt P08908).
T2 sequence (P08908 1-422): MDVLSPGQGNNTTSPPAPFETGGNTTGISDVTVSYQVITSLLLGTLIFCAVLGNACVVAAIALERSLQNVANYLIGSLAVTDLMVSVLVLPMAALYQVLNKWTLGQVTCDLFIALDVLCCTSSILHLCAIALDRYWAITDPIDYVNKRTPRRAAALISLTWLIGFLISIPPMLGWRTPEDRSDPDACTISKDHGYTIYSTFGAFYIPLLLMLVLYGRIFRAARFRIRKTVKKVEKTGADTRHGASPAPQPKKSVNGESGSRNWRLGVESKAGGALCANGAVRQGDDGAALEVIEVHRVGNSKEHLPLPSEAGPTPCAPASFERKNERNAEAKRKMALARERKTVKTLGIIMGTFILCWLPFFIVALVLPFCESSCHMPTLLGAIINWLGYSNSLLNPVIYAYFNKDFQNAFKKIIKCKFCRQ
In words: selectivity, 5-HT1A receptor. The note with it: up to a concentration of 1 μM.

Test [4] deals with 5-HT6 receptor (Homo sapiens, UniProt P50406). In words: selectivity, 5-HT6 receptor. The note with it: up to a concentration of 1 μM.
Chain of 5-HT6 receptor (P50406 whole entry): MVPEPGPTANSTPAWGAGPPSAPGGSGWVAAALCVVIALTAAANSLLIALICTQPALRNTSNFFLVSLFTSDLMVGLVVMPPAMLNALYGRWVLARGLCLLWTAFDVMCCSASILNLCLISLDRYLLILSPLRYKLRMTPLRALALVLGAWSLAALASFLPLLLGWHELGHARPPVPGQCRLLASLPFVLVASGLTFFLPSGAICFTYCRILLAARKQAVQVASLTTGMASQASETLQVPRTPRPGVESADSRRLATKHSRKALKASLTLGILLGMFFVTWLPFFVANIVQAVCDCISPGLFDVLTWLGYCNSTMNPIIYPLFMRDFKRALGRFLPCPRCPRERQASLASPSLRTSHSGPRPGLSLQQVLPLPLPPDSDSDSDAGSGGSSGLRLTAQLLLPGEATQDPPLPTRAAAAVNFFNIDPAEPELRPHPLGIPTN
The target of test [5] is 5-HT2A receptor (Homo sapiens, UniProt P28223). The test is described as follows: selectivity, 5-HT2A receptor. The note with it: up to a concentration of 1 μM.
Chain of 5-HT2A receptor (P28223 whole entry): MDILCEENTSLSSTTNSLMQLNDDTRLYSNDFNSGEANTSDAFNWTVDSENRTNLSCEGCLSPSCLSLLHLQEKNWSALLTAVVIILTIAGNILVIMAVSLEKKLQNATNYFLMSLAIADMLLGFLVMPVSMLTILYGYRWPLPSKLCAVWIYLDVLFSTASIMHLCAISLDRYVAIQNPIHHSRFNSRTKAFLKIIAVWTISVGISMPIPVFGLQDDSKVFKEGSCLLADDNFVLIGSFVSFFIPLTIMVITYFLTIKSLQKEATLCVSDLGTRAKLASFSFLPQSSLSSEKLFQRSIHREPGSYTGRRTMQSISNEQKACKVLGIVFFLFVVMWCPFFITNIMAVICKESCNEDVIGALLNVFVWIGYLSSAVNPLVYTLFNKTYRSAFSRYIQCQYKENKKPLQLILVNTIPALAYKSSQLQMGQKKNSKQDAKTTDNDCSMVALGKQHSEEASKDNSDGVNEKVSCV
Test [6] concerns the target T3, 5-HT3 receptor (Homo sapiens, UniProt P46098).
T3 sequence (P46098 24-478): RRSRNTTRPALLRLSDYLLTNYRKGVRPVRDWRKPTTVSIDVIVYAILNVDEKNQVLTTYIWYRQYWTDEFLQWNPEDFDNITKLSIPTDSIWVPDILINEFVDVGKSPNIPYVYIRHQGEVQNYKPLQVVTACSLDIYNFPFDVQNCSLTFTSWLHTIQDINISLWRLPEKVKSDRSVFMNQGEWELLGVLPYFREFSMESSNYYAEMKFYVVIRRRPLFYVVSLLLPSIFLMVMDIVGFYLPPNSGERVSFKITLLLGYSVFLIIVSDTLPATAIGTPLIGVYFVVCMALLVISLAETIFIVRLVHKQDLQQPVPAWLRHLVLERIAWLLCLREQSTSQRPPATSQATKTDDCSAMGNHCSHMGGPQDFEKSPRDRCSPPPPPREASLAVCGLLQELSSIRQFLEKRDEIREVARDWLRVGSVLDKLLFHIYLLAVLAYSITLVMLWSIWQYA
In words: selectivity, 5-HT3 receptor. The note with it: up to a concentration of 1 μM.

Test [7] has as its target T4, 5-HT2C receptor (Homo sapiens, UniProt P28335).
T4 sequence (P28335 33-458): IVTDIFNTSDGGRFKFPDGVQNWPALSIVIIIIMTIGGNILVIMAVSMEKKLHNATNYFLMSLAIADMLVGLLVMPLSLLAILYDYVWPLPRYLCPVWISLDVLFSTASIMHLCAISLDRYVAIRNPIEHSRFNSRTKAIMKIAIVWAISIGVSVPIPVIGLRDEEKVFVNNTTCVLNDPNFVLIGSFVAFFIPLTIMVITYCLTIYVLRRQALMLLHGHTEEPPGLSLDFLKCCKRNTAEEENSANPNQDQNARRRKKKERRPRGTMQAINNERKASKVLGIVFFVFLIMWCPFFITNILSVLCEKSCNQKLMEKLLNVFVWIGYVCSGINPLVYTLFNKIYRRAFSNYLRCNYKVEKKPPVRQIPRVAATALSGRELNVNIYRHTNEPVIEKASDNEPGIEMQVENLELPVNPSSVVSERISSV
In words: selectivity, 5-HT2C receptor. The note with it: up to a concentration of 1 μM.

The target of test [8] is 5-HT5A receptor (Homo sapiens, UniProt P47898). In words: selectivity, 5-HT5A receptor. The note with it: up to a concentration of 1 μM.
Chain of 5-HT5A receptor (P47898 whole entry): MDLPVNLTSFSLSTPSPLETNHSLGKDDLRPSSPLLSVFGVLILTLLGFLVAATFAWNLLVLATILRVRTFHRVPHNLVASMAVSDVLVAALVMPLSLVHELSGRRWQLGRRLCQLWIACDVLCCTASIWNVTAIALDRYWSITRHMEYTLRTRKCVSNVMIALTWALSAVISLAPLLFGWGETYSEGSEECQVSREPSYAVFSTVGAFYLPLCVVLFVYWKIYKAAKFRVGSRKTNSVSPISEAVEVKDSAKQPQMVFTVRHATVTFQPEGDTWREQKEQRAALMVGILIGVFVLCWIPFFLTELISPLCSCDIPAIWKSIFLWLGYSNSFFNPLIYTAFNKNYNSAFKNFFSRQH
Test [9] has as its target 5-HT7 receptor (Homo sapiens, UniProt P34969). The test is described as follows: selectivity, 5-HT7 receptor. The note with it: up to a concentration of 1 μM.
[10] abbreviates: [3H]-GR113808 0.2 nM, membranes of rat glial cells expressing h5-HT4e, 25° C., 30 min, read-out: Ki.

Consider 13 compounds from US7238693B2, “Aryl carbamate derivatives, preparation and use thereof” (Cerep, priority 2001, dated 2007).

Molecules are shown by their SMILES. Like-named read-outs stand apart in the source and are kept apart here.

T1 sequence (Q13639 1-378 isoform Q13639-5): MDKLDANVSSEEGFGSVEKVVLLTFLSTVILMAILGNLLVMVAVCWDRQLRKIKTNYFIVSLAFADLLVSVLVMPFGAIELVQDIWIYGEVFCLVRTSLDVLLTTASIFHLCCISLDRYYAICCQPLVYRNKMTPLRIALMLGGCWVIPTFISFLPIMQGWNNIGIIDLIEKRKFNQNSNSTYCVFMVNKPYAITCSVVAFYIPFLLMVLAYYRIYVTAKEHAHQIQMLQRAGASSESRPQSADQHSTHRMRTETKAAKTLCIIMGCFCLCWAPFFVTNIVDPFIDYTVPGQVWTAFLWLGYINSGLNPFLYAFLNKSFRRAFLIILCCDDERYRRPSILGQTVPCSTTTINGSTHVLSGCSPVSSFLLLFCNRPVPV
Chain of 5-HT1B receptor (P28222 whole entry): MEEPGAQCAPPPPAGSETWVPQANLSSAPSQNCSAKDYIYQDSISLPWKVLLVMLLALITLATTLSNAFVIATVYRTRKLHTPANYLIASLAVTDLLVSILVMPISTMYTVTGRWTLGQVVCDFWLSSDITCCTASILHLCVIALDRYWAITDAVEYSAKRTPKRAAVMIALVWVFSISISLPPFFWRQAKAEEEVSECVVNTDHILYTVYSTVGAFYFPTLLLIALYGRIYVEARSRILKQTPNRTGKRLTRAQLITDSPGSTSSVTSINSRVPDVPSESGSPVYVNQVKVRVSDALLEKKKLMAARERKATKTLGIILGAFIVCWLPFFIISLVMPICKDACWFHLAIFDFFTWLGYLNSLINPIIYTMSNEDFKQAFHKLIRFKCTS
Chain of 5-HT7 receptor (P34969 whole entry): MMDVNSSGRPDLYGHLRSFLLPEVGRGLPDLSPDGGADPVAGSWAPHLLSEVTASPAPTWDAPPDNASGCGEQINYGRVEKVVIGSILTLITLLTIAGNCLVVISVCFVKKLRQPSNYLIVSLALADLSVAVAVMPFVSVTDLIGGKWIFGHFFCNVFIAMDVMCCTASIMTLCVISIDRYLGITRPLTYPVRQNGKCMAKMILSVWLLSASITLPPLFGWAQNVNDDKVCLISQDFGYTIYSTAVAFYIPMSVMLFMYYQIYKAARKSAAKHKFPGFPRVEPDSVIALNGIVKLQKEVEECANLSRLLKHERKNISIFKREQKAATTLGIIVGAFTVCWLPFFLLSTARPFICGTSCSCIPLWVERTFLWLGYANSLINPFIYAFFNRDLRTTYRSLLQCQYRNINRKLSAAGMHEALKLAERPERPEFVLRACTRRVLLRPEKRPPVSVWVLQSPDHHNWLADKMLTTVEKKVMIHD

Regarding `CCOc1ccccc1NC(=O)OCCN1CCN(c2cccc(C)c2)CC1` [Compound 21, 2-[4-(3-methylphenyl)piperazino]ethyl-N-(2-ethoxyphenyl)carbamate], the Ki (usually the equilibrium dissociation constant of an inhibitor or competing ligand from its target) in [1] (setting [10]) is 20.2 nM. Consider `CCOc1ccccc1NC(=O)OCCN1CCN(c2ccccn2)CC1` [Compound 24, 2-[4-(2-pyridinyl)piperazino]ethyl-N-(2-ethoxyphenyl)carbamate], for which the Ki in [1] (setting [10]) was determined as 4.5 nM. Still for that read-out and setting: the result for `CCOc1ccccc1NC(=O)OCCCN1CCN(c2ccccn2)CC1` [Compound 40, 3-[4-(2-pyridinyl)piperazino]propyl-N-(2-ethoxyphenyl)carbamate] reads 9.9 nM; that for `CCOc1ccccc1NC(=O)OCCCN1CCN(c2cccnn2)CC1` [Compound 42, 3-[4-(3-pyridazinyl)piperazino]propyl-N-(2-ethoxyphenyl)carbamate], 3.6 nM; that for `CCOc1ccccc1NC(=O)OCCCN1CCN(c2ccncn2)CC1` [Compound 43, 3-[4-(4-pyrimidinyl)piperazino]propyl-N-(2-ethoxyphenyl)carbamate], 10.4 nM. Turning to `CCOc1ccccc1NC(=O)OCCCN1CCN(c2ncccn2)CC1` [Compound 44, 3-[4-(2-pyrimidinyl)piperazino]propyl-N-(2-ethoxyphenyl)carbamate], in test [1] (setting [10]), the Ki is 11.8 nM. For the compound `CCOc1ccccc1NC(=O)OCCCN1CCN(c2ccc(C)nn2)CC1` [Compound 48, 3-[4-(6-methyl-3-pyridazinyl)piperazino]propyl-N-(2-ethoxyphenyl)carbamate], the Ki in [1] (setting [10]) was 3.9 nM.

`COc1cccc(N2CCN(CCOC(=O)Nc3ccccc3OC)CC2)c1` [Compound 51, 2-[4-(3-methoxyphenyl)piperazino]ethyl-N-(2-methoxyphenyl)carbamate]: the Ki in [1] (setting [10]) was found to be 12.7 nM. For the compound `COc1ccccc1NC(=O)OCCN1CCN(c2ccccn2)CC1` [Compound 62, 2-[4-(2-pyridinyl)piperazino]ethyl-N-(2-methoxyphenyl)carbamate], the Ki in [1] (setting [10]) was 9.3 nM. `COc1ccccc1NC(=O)OCCN1CCN(c2ccncc2)CC1` [Compound 63, 2-[4-(4-pyridinyl)piperazino]ethyl-N-(2-methoxyphenyl)carbamate]: in test [2], the “activity for the 5-HT1B receptor” value is reported as “no activity”. Also, in test [1] (as stated in the description, read-out: Ki for the 5-HT4 receptor), the Ki came out at 5 nM. For the same compound, in test [3], the “activity for the 5-HT1A receptor” value is reported as “no activity”. Besides, the “activity for the 5-HT6 receptor” value in test [4] is “no activity”. For the same compound, the “activity for the 5-HT2A receptor” value in test [5] is on record as “no activity”. In addition, the “activity for the 5-HT3 receptor” value in test [6] is on record as “no activity”. Further, in test [7], the “activity for the 5-HT2C receptor” value is reported as “no activity”. In addition, in test [8], the “activity for the 5-HT5A receptor” value is recorded as “no activity”. For the same compound, the “activity for the 5-HT7 receptor” value in test [9] is “no activity”.

Take `COc1ccccc1NC(=O)OCCN1CCN(c2cccnn2)CC1` [Compound 64, 2-[4-(3-pyridazinyl)piperazino]ethyl-N-(2-methoxyphenyl)carbamate]: the inhibitory constant (Ki) in [1] (setting [10]) was 10.6 nM. On to `COc1ccccc1NC(=O)OCCN1CCN(c2ncccn2)CC1` [Compound 65, 2-[4-(2-pyrimidinyl)piperazino]ethyl-N-(2-methoxyphenyl)carbamate], for which, in test [1] (setting [10]), the Ki was determined as 10.4 nM. Consider `COc1ccccc1NC(=O)OCCCN1CCN(c2ccncc2)CC1` [Compound 83, 3-[4-(4-pyridinyl)piperazino]propyl-N-(2-methoxyphenyl)carbamate], for which the inhibition constant (Ki) in test [1] (setting [10]) is 10 nM.
